Compound in one test: C=CC(=O)Nc1cc2c(Nc3ccc(F)c(Cl)c3)ncnc2cc1OCCCN1CCOCC1 [CANERTINIB]
In words: surviving fraction relative to DMSO-only wells; higher = less growth inhibition. The note with it: exposure time: 5 days. The essentials:
(§1)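 Log-phase tumour cell lines were seeded at 250–500 cells per well in 384-well plates. After 24 hours they were exposed continuously for five days to inhibitors at 0.5, 1, 5, 10, 50, 100, 500 and 1000 nM. Viability was read by CellTiter-Glo luminescence after 10 minutes at room temperature, and surviving fraction is luminescence normalised to the median of DMSO-only wells. Each line was screened three times and kept only if replicate Pearson r >0.7 and median Z' >0.3.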

Compound in another test: CC[C@@H]1C(=O)N(C)c2cnc(Nc3ccc(C(=O)NC4CCN(C)CC4)cc3OC)nc2N1C1CCCC1 [BI-2536]
The description is as above. The conditions noted are these: exposure time: 5 days. The procedure, abridged:
as §1

± gives the standard deviation of the averaged measurements.

For the test system MHM BONE, the surviving fraction in the test with CANERTINIB (0.5 nM) is 0.981 ± 0.051; in the test with CANERTINIB (1 nM), 0.983 ± 0.038; in the test with CANERTINIB (5 nM), 1.03 ± 0.054; with CANERTINIB (10 nM) it was 1 ± 0.051; in the test with CANERTINIB (50 nM), 0.9877 ± 0.0076; with CANERTINIB (100 nM), 0.953 ± 0.021. The surviving fraction in the test with CANERTINIB (500 nM) is 0.903 ± 0.019; in the test with CANERTINIB (1000 nM) it was 0.863 ± 0.018; in the test with BI-2536 (0.5 nM), 1.02 ± 0.021; with BI-2536 (1 nM), 0.993 ± 0.017; in the test with BI-2536 (5 nM) it was 1.03 ± 0.023; with BI-2536 (10 nM) it was 0.831 ± 0.058. Further, the surviving fraction with BI-2536 (50 nM) worked out at 0.404 ± 0.013; with BI-2536 (100 nM), 0.327 ± 0.026; in the test with BI-2536 (500 nM), 0.248 ± 0.0076; with BI-2536 (1000 nM), 0.258 ± 0.015.

NCIH441 LUNG: the surviving fraction came to 0.951 ± 0.059 with CANERTINIB (0.5 nM); 1.02 ± 0.02 in the test with CANERTINIB (1 nM); 1.01 ± 0.029 with CANERTINIB (5 nM); 1.03 ± 0.07 with CANERTINIB (10 nM); 0.918 ± 0.1 with CANERTINIB (50 nM); 0.923 ± 0.0095 with CANERTINIB (100 nM). The surviving fraction with CANERTINIB (500 nM) turned out to be 0.736 ± 0.098; with CANERTINIB (1000 nM) it was 0.635 ± 0.086; with BI-2536 (0.5 nM), 1.03 ± 0.16; with BI-2536 (1 nM) it was 0.859 ± 0.11; with BI-2536 (5 nM) it was 0.571 ± 0.057; with BI-2536 (10 nM), 0.499 ± 0.041. Also, the surviving fraction in the test with BI-2536 (50 nM) was found to be 0.502 ± 0.03; in the test with BI-2536 (100 nM), 0.507 ± 0.022; with BI-2536 (500 nM), 0.36 ± 0.028; with BI-2536 (1000 nM) it was 0.228 ± 0.01.

Turning to NOS1 BONE, the surviving fraction came to 0.909 ± 0.16 with CANERTINIB (0.5 nM); 0.939 ± 0.12 with CANERTINIB (1 nM); 0.957 ± 0.094 with CANERTINIB (5 nM); 1.04 ± 0.14 in the test with CANERTINIB (10 nM); 1.04 ± 0.11 with CANERTINIB (50 nM); 1.1 ± 0.1 in the test with CANERTINIB (100 nM). Further, the surviving fraction was found to be 0.585 ± 0.052 with CANERTINIB (500 nM); 0.333 ± 0.02 with CANERTINIB (1000 nM); 1.01 ± 0.12 with BI-2536 (0.5 nM); 0.839 ± 0.089 with BI-2536 (1 nM); 0.338 ± 0.056 with BI-2536 (5 nM); 0.296 ± 0.046 with BI-2536 (10 nM). The surviving fraction worked out at 0.341 ± 0.074 with BI-2536 (50 nM), 0.387 ± 0.002 with BI-2536 (100 nM), 0.334 ± 0.034 with BI-2536 (500 nM) and 0.328 ± 0.02 with BI-2536 (1000 nM).

Regarding NY BONE, the surviving fraction is 0.892 ± 0.042 in the test with CANERTINIB (0.5 nM); 0.905 ± 0.031 with CANERTINIB (1 nM); 0.998 ± 0.027 with CANERTINIB (5 nM); 0.956 ± 0.028 with CANERTINIB (10 nM); 0.965 ± 0.052 with CANERTINIB (50 nM); 0.955 ± 0.01 in the test with CANERTINIB (100 nM). Further, the surviving fraction came out at 0.825 ± 0.034 with CANERTINIB (500 nM); 0.69 ± 0.009 in the test with CANERTINIB (1000 nM); 0.988 ± 0.025 with BI-2536 (0.5 nM); 0.851 ± 0.01 in the test with BI-2536 (1 nM); 0.051 ± 0.0035 with BI-2536 (5 nM); 0.0633 ± 0.0051 with BI-2536 (10 nM). Moreover, the surviving fraction with BI-2536 (50 nM) came to 0.17 ± 0.023; with BI-2536 (100 nM) it was 0.305 ± 0.0079; with BI-2536 (500 nM) it was 0.372 ± 0.0087; with BI-2536 (1000 nM), 0.298 ± 0.03.

Turning to OS25HAL BONE, the surviving fraction in the test with CANERTINIB (0.5 nM) stood at 0.898 ± 0.0053; with CANERTINIB (1 nM), 0.879 ± 0.013; in the test with CANERTINIB (5 nM) it was 0.886 ± 0.003; with CANERTINIB (10 nM), 0.893 ± 0.042; in the test with CANERTINIB (50 nM) it was 1.014 ± 0.0056; with CANERTINIB (100 nM), 1.03 ± 0.019. Also, the surviving fraction with CANERTINIB (500 nM) worked out at 1.01 ± 0.072; with CANERTINIB (1000 nM) it was 0.981 ± 0.092; in the test with BI-2536 (0.5 nM) it was 1.003 ± 0.006; with BI-2536 (1 nM) it was 0.933 ± 0.064; with BI-2536 (5 nM), 0.0997 ± 0.016; with BI-2536 (10 nM), 0.0533 ± 0.0029. In addition, the surviving fraction in the test with BI-2536 (50 nM) was 0.0483 ± 0.0015; with BI-2536 (100 nM), 0.0337 ± 0.004; with BI-2536 (500 nM), 0.0317 ± 0.0023; in the test with BI-2536 (1000 nM), 0.037 ± 0.002.

On to OSHN BONE, for which the surviving fraction is 0.898 ± 0.036 in the test with CANERTINIB (0.5 nM); 0.904 ± 0.028 in the test with CANERTINIB (1 nM); 0.932 ± 0.035 in the test with CANERTINIB (5 nM); 0.91 ± 0.019 with CANERTINIB (10 nM); 1.03 ± 0.043 with CANERTINIB (50 nM); 1.03 ± 0.016 in the test with CANERTINIB (100 nM). For the same test system, the surviving fraction was found to be 1.02 ± 0.0035 in the test with CANERTINIB (500 nM); 1.03 ± 0.028 with CANERTINIB (1000 nM); 1.09 ± 0.019 with BI-2536 (0.5 nM); 1.075 ± 0.0046 with BI-2536 (1 nM); 0.874 ± 0.072 with BI-2536 (5 nM); 0.027 ± 0.001 in the test with BI-2536 (10 nM). In addition, the surviving fraction with BI-2536 (50 nM) turned out to be 0.0297 ± 0.00058; with BI-2536 (100 nM) it was 0.022 ± 0.001; with BI-2536 (500 nM), 0.0237 ± 0.0021; with BI-2536 (1000 nM), 0.0237 ± 0.0011.

The values are drawn from the supplement of paper PMC6045584.
